What was measured:
Conditions in all cases: Compound concentration 1.0 uM
[1] = molecular target: Serine/threonine-protein kinase PLK1 (Homo sapiens) (UniProt P53350); assay: Plk1(h) Eurofins kinase panel
[2] = molecular target: T1, TGF-beta receptor type-1 (Homo sapiens) (UniProt P36897); assay: TGFBR1(h) Eurofins kinase panel
T1 sequence (whole entry): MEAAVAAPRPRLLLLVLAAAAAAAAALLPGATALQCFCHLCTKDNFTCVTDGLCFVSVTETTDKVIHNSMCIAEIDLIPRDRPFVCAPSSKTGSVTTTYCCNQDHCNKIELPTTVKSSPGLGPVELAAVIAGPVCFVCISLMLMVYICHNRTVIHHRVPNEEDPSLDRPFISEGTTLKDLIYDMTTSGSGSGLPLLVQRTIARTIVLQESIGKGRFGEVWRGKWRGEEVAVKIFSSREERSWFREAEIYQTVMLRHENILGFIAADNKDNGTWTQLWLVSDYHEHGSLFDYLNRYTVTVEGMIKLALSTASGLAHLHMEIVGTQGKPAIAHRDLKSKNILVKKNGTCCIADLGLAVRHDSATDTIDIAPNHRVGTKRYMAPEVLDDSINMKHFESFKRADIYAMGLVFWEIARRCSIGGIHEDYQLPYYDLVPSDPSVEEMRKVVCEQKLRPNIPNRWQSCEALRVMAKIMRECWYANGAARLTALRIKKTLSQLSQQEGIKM

[3] = molecular target: T2, Serine/threonine-protein kinase ULK1 (Homo sapiens) (UniProt O75385); assay: ULK1(h) Eurofins kinase panel
T2 sequence (whole entry): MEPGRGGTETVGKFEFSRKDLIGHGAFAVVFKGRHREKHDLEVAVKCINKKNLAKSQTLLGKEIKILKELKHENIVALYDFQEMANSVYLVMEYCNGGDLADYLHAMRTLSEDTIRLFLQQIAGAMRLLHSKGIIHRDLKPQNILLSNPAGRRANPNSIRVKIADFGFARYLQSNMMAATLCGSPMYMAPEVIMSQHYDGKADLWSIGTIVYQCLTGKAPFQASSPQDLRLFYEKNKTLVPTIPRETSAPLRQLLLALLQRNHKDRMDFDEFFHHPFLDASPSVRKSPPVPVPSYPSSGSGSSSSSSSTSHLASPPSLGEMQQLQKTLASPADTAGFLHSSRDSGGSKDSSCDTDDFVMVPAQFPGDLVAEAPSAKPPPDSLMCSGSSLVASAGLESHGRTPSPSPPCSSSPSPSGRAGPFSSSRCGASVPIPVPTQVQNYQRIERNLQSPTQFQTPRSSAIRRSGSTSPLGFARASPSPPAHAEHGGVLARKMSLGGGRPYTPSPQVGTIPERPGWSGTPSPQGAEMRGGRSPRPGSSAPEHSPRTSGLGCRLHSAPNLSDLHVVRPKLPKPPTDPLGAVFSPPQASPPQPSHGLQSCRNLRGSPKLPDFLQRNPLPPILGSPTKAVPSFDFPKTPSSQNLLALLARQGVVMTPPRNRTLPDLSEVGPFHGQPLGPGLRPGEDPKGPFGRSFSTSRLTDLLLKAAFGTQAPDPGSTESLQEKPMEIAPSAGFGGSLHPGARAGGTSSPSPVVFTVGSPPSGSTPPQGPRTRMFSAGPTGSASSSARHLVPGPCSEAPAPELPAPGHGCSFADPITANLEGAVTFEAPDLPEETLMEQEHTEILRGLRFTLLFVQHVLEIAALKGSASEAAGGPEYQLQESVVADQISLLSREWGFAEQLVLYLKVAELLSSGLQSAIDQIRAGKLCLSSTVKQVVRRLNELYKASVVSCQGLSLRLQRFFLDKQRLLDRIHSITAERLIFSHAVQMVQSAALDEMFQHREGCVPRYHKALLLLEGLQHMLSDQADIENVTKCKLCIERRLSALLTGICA

[4] = molecular target: T3, Tyrosine-protein kinase ZAP-70 (Homo sapiens) (UniProt P43403); assay: ZAP-70(h) Eurofins kinase panel
T3 sequence (whole entry): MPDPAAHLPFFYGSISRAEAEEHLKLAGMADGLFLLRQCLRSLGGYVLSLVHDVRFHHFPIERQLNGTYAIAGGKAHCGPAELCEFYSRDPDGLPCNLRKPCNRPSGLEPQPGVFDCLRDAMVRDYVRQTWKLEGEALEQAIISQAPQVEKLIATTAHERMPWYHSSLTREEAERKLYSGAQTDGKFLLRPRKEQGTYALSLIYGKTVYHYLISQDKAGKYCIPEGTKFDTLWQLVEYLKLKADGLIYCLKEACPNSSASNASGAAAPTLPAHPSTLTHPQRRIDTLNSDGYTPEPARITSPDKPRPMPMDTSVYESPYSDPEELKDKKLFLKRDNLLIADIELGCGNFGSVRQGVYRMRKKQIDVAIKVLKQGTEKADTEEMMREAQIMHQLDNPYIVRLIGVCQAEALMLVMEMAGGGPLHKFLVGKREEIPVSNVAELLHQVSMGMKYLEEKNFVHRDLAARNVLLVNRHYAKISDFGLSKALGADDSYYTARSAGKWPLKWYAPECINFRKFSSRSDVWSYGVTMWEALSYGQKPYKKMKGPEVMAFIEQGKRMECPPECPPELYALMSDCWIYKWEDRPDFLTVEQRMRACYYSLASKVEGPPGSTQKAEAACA

[5] = molecular target: MAPK/MAK/MRK overlapping kinase (Homo sapiens) (UniProt Q9UQ07); assay: MOK(h) Eurofins kinase panel
MAPK/MAK/MRK overlapping kinase (Homo sapiens), sequence (Q9UQ07 whole entry): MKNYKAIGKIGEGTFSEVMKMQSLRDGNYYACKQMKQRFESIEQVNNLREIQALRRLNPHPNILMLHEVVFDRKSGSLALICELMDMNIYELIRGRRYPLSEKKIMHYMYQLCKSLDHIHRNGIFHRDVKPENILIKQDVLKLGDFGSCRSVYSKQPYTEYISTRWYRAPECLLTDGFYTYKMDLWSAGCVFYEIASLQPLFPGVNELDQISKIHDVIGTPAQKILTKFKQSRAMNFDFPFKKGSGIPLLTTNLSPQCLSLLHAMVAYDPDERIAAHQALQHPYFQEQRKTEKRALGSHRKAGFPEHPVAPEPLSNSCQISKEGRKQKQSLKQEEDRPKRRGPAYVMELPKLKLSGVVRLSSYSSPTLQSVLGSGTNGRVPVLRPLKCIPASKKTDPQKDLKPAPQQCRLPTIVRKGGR

[6] = molecular target: Serine/threonine-protein kinase Nek6 (Homo sapiens) (UniProt Q9HC98); assay: NEK6(h) Eurofins kinase panel
Serine/threonine-protein kinase Nek6 (Homo sapiens), sequence (Q9HC98 whole entry): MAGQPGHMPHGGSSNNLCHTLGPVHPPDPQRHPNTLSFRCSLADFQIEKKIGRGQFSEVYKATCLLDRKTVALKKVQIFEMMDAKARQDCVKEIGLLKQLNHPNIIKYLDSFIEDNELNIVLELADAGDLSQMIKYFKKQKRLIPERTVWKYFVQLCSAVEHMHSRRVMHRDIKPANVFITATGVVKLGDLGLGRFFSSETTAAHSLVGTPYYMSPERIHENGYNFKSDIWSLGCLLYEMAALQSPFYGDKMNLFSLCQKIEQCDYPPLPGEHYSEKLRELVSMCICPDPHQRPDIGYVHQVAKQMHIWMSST

[7] = molecular target: T4, Serine/threonine-protein kinase 4 (Homo sapiens) (UniProt Q13043); assay: MST1(h) Eurofins kinase panel
T4 sequence (whole entry): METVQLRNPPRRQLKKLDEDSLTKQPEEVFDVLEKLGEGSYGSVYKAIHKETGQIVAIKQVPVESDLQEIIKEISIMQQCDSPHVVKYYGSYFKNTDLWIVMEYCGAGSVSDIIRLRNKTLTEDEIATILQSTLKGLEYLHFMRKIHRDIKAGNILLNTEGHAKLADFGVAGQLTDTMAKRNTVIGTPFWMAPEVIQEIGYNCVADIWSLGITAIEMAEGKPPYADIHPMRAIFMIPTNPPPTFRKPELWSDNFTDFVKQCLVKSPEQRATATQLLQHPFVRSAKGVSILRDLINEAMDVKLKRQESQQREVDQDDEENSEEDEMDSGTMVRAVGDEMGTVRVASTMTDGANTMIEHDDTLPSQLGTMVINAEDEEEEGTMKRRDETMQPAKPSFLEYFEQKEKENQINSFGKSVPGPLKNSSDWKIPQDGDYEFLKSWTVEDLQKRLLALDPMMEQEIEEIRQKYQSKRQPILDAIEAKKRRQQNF

[8] = molecular target: Serine/threonine-protein kinase pim-2 (Homo sapiens) (UniProt Q9P1W9); assay: Pim-2(h) Eurofins kinase panel
Serine/threonine-protein kinase pim-2 (Homo sapiens), sequence (Q9P1W9 whole entry, looked up): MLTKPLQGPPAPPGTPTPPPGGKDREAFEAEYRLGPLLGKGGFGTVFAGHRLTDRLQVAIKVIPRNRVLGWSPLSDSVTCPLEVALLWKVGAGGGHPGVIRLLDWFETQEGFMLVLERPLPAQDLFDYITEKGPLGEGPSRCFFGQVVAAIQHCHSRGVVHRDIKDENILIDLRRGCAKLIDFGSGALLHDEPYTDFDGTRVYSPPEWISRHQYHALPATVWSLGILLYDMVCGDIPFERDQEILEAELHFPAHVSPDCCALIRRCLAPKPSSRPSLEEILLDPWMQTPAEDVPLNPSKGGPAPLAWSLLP

Homo sapiens = organism: Homo sapiens; assay: CK2(h) Eurofins kinase panel

Measured: % residual kinase activity

Serine/threonine-protein kinase PLK1 (Homo sapiens), sequence (P53350 whole entry): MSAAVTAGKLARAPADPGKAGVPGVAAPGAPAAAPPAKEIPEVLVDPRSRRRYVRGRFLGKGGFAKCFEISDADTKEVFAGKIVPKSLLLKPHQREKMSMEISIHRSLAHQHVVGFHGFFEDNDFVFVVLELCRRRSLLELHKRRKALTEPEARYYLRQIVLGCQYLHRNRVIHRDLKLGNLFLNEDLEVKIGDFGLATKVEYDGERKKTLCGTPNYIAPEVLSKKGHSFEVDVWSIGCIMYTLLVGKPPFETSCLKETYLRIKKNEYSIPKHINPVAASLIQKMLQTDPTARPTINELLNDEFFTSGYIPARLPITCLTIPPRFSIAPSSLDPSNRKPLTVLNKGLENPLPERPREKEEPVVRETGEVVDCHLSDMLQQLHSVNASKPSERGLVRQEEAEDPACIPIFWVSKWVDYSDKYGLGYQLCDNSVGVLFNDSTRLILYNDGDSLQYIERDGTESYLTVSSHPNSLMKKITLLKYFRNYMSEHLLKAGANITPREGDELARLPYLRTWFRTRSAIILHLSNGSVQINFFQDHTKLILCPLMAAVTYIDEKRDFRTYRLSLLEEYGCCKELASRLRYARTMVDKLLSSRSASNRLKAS

CCc1ccccc1C(=O)Nc1n[nH]c2c(C)c(F)c(C3C(C#N)=C(C)N(C)C(C)=C3C#N)cc12 [BAY-3827]
inactive: [1] 102% | [2] 99% | [3] 26% | [4] 119% | [5] 115% | [6] 94% | [7] 73% | [8] 102% | Homo sapiens 94%

Reference: ChEMBL document CHEMBL4507319 (2021)
